From patent US20260200975A1, “PEPTIDE FOR CARTILAGE REGENERATION, AND USES THEREOF” (CAREGEN CO., LTD., priority 2022, published 2026)
Peptide text beside a SMILES is read from it.

Tested on: human-derived chondrocytes (C28/12, human chondrocyte cell line)
Assay: Cytotoxicity by CCK-8 assay
Type: cell-based
Details: C28/12 cells, different concentrations, 3 days, absorbance 450 nm
Description: The cytotoxicity of Peptide-1 or Peptide-2 upon addition to human-derived chondrocytes (C28/12, human chondrocyte cell line) was analyzed using a CCK-8 assay.
Specifically, human-derived chondrocytes were seeded in a 96-well plate at a density of 3×10^3 cells/well and cultured in DMEM medium (cat. 11995-065, Gibco) for 24 hours. […] Meanwhile, as a positive control group, one to which TGFβ1 (20 ng/ml) was added was used.

| SMILES | toxicity in human-derived chondrocytes (CCK-8 activity) |
| --- | --- |
| N[C@@H](CCC(=O)O)C(=O)N[C@@H](Cc1ccc(O)cc1)C(=O)N[C@@H](Cc1ccccc1)C(=O)N[C@@H](Cc1c[nH]c2ccccc12)C(=O)O [Peptide-1, Glu(E)-Tyr(Y)-Phe(F)-Trp(W)] (H-EYFW-OH) | did not exhibit toxicity |
| CC(C)C[C@H](NC(=O)[C@@H](NC(=O)[C@@H](N)CCCNC(=N)N)[C@@H](C)O)C(=O)O [Peptide-2, Arg(R)-Thr(T)-Leu(L)] (H-Arg-Thr-Leu-OH) | did not exhibit toxicity |
